Reference: patent US20250064941A1, “SIGLEC LIGANDS, CONJUGATES, AND METHODS OF USE THEREOF” (Osprey Biopharmaceuticals, Inc., priority 2023, published 2025)
pKd: −log10 of the molar value.

Tests used:
[1] = molecular target: T1, human Siglec-2/CD22 protein (Homo sapiens, UniProt P20273); assay: SPR binding affinity to human CD22; details: steady-state analysis
T1 construct: purchased Acro Biosystems SI2-H82E3
T1 sequence (P20273 20-847): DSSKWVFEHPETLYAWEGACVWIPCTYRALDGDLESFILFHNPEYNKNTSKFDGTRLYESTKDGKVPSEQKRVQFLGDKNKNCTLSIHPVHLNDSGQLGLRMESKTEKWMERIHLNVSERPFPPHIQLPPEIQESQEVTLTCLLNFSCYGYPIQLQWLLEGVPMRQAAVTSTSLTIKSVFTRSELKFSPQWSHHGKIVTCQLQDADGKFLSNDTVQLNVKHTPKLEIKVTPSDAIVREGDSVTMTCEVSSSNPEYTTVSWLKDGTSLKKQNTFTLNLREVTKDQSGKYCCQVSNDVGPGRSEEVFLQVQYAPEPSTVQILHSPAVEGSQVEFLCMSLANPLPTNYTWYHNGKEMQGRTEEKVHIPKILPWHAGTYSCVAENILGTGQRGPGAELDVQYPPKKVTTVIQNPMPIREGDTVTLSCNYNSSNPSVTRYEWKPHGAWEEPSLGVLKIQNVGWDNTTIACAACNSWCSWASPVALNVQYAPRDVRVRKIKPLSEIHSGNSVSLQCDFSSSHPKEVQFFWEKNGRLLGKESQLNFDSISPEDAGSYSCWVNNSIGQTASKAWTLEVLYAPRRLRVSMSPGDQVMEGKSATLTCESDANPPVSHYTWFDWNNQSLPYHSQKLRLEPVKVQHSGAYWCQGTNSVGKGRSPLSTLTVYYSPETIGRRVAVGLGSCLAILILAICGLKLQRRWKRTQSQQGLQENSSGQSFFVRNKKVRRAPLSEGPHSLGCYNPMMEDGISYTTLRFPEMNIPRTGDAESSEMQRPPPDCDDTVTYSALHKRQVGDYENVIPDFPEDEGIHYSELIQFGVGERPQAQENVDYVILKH
How it was run: (§1)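 Steady-state fits gave the affinities. Before capture on a streptavidin surface, biotinylated CD22 had native sialic acids stripped (SialoExo, 4 hours, 37° C.). Running buffer: 10 mM HEPES pH 7.5, 150 mM NaCl, 0.05% Tween-20, 1% DMSO, with DMSO solvent correction.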

[2] = molecular target: cynomolgus Siglec-2/CD22 (Macaca fascicularis, UniProt A0A2K5WCZ6); assay: biochemical; type: binding; details: SPR, steady-state analysis; read-out: Affinity cyno CD22
Chain of cynomolgus Siglec-2/CD22 (A0A2K5WCZ6 entry or part of it): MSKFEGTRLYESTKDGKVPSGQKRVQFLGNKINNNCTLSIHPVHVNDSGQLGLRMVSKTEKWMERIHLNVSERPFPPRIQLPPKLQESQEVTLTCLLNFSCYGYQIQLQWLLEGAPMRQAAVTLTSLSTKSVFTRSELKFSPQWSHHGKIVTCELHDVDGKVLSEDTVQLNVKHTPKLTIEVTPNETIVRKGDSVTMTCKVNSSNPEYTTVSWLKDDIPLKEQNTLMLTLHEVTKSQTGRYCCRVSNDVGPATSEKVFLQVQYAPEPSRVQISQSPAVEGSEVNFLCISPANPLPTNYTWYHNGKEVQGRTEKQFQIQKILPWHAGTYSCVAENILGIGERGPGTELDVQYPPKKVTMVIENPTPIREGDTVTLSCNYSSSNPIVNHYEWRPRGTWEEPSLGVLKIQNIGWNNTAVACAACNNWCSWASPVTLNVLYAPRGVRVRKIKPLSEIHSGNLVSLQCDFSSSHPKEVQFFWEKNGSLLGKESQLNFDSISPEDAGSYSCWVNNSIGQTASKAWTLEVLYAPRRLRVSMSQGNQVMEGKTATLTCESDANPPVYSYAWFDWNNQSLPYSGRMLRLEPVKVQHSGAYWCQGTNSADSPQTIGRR
How it was run: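 Compound binding measured by steady-state SPR analysis, 120 s dissociation, in HEPES-NaCl-Tween buffer pH 7.5 containing 1% DMSO, DMSO solvent-corrected. Surface: cyno CD22, sialic acids first stripped by SialoExo for 4 h at 37° C., then amine-coupled onto CM5.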

[3] = molecular target: T2, mouse Siglec-2-Fc-Avi (CD22) (Mus musculus, UniProt P35329); assay: SPR binding affinity to mouse CD22; details: steady-state analysis
T2 construct: made in house
T2 sequence (P35329 22-708 limits assumed): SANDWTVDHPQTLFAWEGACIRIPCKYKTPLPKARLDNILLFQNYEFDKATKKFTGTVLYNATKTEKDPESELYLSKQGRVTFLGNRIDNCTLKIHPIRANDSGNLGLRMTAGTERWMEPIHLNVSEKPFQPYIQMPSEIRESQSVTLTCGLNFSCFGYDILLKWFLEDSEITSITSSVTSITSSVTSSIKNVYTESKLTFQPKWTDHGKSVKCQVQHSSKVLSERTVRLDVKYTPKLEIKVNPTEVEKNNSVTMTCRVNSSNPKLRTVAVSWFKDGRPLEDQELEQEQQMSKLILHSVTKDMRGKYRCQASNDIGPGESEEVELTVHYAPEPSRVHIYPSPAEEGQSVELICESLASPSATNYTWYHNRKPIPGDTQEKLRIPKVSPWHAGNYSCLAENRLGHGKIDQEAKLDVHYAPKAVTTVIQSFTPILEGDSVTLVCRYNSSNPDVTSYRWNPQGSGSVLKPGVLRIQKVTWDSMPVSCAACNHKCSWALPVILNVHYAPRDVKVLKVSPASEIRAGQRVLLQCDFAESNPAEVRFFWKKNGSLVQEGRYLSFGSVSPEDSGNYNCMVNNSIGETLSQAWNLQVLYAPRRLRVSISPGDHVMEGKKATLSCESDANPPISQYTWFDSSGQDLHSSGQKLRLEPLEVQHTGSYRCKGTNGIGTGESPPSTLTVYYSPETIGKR
How it was run: as §1

Row | SMILES | pKd [1] | pKd [2] | pKd [3]
1 | C#CCOCCOCCNc1c(NCCCCCCO[C@]2(C(=O)O)C[C@H](O)[C@@H](NC(=O)CO)[C@H]([C@H](O)[C@H](O)CNC(=O)c3ccc(C(F)F)cc3)O2)c(=O)c1=O [Compound 231, (2R,4S,5R,6R)-6-((1R,2R)-3-(4-(difluoromethyl)benzamido)-1,2-dihydroxypropyl)-2-((6-((3,4-dioxo-2-((2-(2-(prop-2-yn-1-yloxy)ethoxy)ethyl)amino)cyclobut-1-en-1-yl)amino)hexyl)oxy)-4-hydroxy-5-(2-hydroxyacetamido)tetrahydro-2H-pyran-2-carboxylic acid] | > 6.00 | > 6.00 | 5.00 to 6.00
2 | C#CCOCCOCCNc1c(NCCCCCCO[C@]2(C(=O)O)C[C@H](O)[C@@H](NC(=O)CO)[C@H]([C@H](O)[C@H](O)CNC(=O)c3ccc(F)cc3)O2)c(=O)c1=O [Compound 232, (2R,4S,5R,6R)-2-((6-((3,4-dioxo-2-((2-(2-(prop-2-yn-1-yloxy)ethoxy)ethyl)amino)cyclobut-1-en-1-yl)amino)hexyl)oxy)-6-((1R,2R)-3-(4-fluorobenzamido)-1,2-dihydroxypropyl)-4-hydroxy-5-(2-hydroxyacetamido)tetrahydro-2H-pyran-2-carboxylic acid] | 5.00 to 6.00 | 5.00 to 6.00 | < 5.00
3 | C#CCOCCOCCNc1c(NCCCCCCO[C@]2(C(=O)O)C[C@H](O)[C@@H](NC(=O)CO)[C@H]([C@H](O)[C@H](O)CNC(=O)c3cccc(C(F)F)c3)O2)c(=O)c1=O [Compound 233, (2R,4S,5R,6R)-6-((1R,2R)-3-(3-(difluoromethyl)benzamido)-1,2-dihydroxypropyl)-2-((6-((3,4-dioxo-2-((2-(2-(prop-2-yn-1-yloxy)ethoxy)ethyl)amino)cyclobut-1-en-1-yl)amino)hexyl)oxy)-4-hydroxy-5-(2-hydroxyacetamido)tetrahydro-2H-pyran-2-carboxylic acid] | 5.00 to 6.00 | 5.00 to 6.00 | 5.00 to 6.00
4 | C#CCOCCOCCNc1c(NCCCCCCO[C@]2(C(=O)O)C[C@H](O)[C@@H](NC(=O)CO)[C@H]([C@H](O)[C@H](O)CNC(=O)c3cccc(F)c3)O2)c(=O)c1=O [Compound 234, (2R,4S,5R,6R)-2-((6-((3,4-dioxo-2-((2-(2-(prop-2-yn-1-yloxy)ethoxy)ethyl)amino)cyclobut-1-en-1-yl)amino)hexyl)oxy)-6-((1R,2R)-3-(3-fluorobenzamido)-1,2-dihydroxypropyl)-4-hydroxy-5-(2-hydroxyacetamido)tetrahydro-2H-pyran-2-carboxylic acid] | 5.00 to 6.00 | 5.00 to 6.00 | 5.00 to 6.00
5 | CC(=O)NCCOCCOCCOCCOCCC(=O)NCCOCCOCCO[C@]1(C(=O)O)C[C@H](O)[C@@H](NC(=O)CO)[C@H]([C@H](O)[C@H](O)CNC(=O)Cc2ccc(-c3ccccc3)cc2)O1 [Compound 236, (2R,4S,5R,6R)-6-((1R,2R)-3-(2-([1,1′-biphenyl]-4-yl)acetamido)-1,2-dihydroxypropyl)-2-((2,18-dioxo-6,9,12,15,22,25-hexaoxa-3,19-diazaheptacosan-27-yl)oxy)-4-hydroxy-5-(2-hydroxyacetamido) tetrahydro-2H-pyran-2-carboxylic acid] | 5.00 to 6.00 | 5.00 to 6.00 | 5.00 to 6.00
6 | CC(=O)NCCOCCOCCOCCOCCC(=O)NCCOCCOCCO[C@]1(C(=O)O)C[C@H](O)[C@@H](NC(=O)CO)[C@H]([C@H](O)[C@H](O)CNC(=O)Cc2ccc(Cl)cc2)O1 [Compound 237, (2R,4S,5R,6R)-6-((1R,2R)-3-(2-(4-chlorophenyl)acetamido)-1,2-dihydroxypropyl)-2-((2,18-dioxo-6,9,12,15,22,25-hexaoxa-3,19-diazaheptacosan-27-yl)oxy)-4-hydroxy-5-(2-hydroxyacetamido) tetrahydro-2H-pyran-2-carboxylic acid] | 5.00 to 6.00 | 5.00 to 6.00 | 5.00 to 6.00
7 | CC(=O)NCCOCCOCCOCCOCCNC(=O)CCOCCO[C@]1(C(=O)O)C[C@H](O)[C@@H](NC(=O)CO)[C@H]([C@H](O)[C@H](O)CNC(=O)Cc2ccc(-c3ccccc3)cc2)O1 [Compound 238, (2R,4S,5R,6R)-6-((1R,2R)-3-(2-([1,1′-biphenyl]-4-yl)acetamido)-1,2-dihydroxypropyl)-2-((2,19-dioxo-6,9,12,15,22-pentaoxa-3,18-diazatetracosan-24-yl)oxy)-4-hydroxy-5-(2-hydroxyacetamido) tetrahydro-2H-pyran-2-carboxylic acid] | 5.00 to 6.00 | 5.00 to 6.00 | 5.00 to 6.00
8 | CC(=O)NCCOCCOCCOCCOCCNC(=O)CCOCCO[C@]1(C(=O)O)C[C@H](O)[C@@H](NC(=O)CO)[C@H]([C@H](O)[C@H](O)CNC(=O)Cc2ccc(Cl)cc2)O1 [Compound 239, (2R,4S,5R,6R)-6-((1R,2R)-3-(2-(4-chlorophenyl)acetamido)-1,2-dihydroxypropyl)-2-((2,19-dioxo-6,9,12,15,22-pentaoxa-3,18-diazatetracosan-24-yl)oxy)-4-hydroxy-5-(2-hydroxyacetamido) tetrahydro-2H-pyran-2-carboxylic acid] | 5.00 to 6.00 | 5.00 to 6.00 | 5.00 to 6.00
9 | CC(=O)NCCOCCOCCOCCOCCNc1c(NCCCCCCO[C@]2(C(=O)O)C[C@H](O)[C@@H](NC(=O)CO)[C@H]([C@H](O)[C@H](O)CNC(=O)Cc3ccc(Cl)cc3)O2)c(=O)c1=O [Compound 240, (2R,4S,5R,6R)-6-((1R,2R)-3-(2-(4-chlorophenyl)acetamido)-1,2-dihydroxypropyl)-2-((6-((3,4-dioxo-2-((2-oxo-6,9,12,15-tetraoxa-3-azaheptadecan-17-yl)amino)cyclobut-1-en-1-yl)amino)hexyl)oxy)-4-hydroxy-5-(2-hydroxyacetamido) tetrahydro-2H-pyran-2-carboxylic acid] | > 6.00 | > 6.00 | > 6.00
10 | CC(=O)NCCOCCOCCOCCOCc1cn(CCCCCCO[C@]2(C(=O)O)C[C@H](O)[C@@H](NC(=O)CO)[C@H]([C@H](O)[C@H](O)CNC(=O)Cc3ccc(C(F)F)cc3)O2)nn1 [Compound 252, (2R,4S,5R,6R)-6-((1R,2R)-3-(2-(4-(difluoromethyl)phenyl)acetamido)-1,2-dihydroxypropyl)-4-hydroxy-5-(2-hydroxyacetamido)-2-((6-(4-(15-oxo-2,5,8,11-tetraoxa-14-azahexadecyl)-1H-1,2,3-triazol-1-yl)hexyl)oxy) tetrahydro-2H-pyran-2-carboxylic acid] | > 6.00 | > 6.00 | 5.00 to 6.00
11 | CC(=O)NCCOCCOCCOCCOCCn1cc(CCCCCCO[C@]2(C(=O)O)C[C@H](O)[C@@H](NC(=O)CO)[C@H]([C@H](O)[C@H](O)CNC(=O)Cc3ccc(C(F)F)cc3)O2)nn1 [Compound 253, (2R,4S,5R,6R)-6-((1R,2R)-3-(2-(4-(difluoromethyl)phenyl)acetamido)-1,2-dihydroxypropyl)-4-hydroxy-5-(2-hydroxyacetamido)-2-((6-(1-(2-oxo-6,9,12,15-tetraoxa-3-azaheptadecan-17-yl)-1H-1,2,3-triazol-4-yl)hexyl)oxy)tetrahydro-2H-pyran-2-carboxylic acid] | > 6.00 | > 6.00 | > 6.00
